Non-standard residues stand in square brackets, D forms with d. Residues, ends and D or L forms follow the SMILES beside them. *: point of attachment. Fmoc = O=C(OCC1c2ccccc2-c2ccccc21)*; Cha = N[C@@H](CC1CCCCC1)C(=O)O; AMC = Cc1cc(=O)oc2cc(N*)ccc12
Tested on: galanin receptors
Experiment: autoradiography of [35S]GTPγS binding in tissue arrays of isolated cell membranes with ligands of galanin receptors
Assay type: biochemical, Sprague Dawley rats
Settings: for binding of [35S]GTPγS in the presence of ligand: some tissues (e.g., pituitary), membranes on slides treated with orthophosphoric acid, vs basal; for antagonism of the action of galnon on [35S]GTPγS binding: galnon + antagonist, tissue arrays (FIG. 7)
Source text: Five male Sprague Dawley rats (250-275 g) were anesthetized and sacrificed according to the guide approved by the Ethics Committee of the Faculty of Medicine of the Basque Country University following internationally accepted guidelines (86/609/EEC). Organs and tissues which would be used in the experiment (pancreas, stomach, small intestine, spleen, heart, lung, liver, testicle, deferent duct, kidney, suprarenal glands, spinal cord and brain: frontal cortex, striatum, brain stem, pituitary, olfactory nuclei, hippocampus, hypothalamus, thalamus, colliculus and cerebellum) were subsequently extracted. These samples were stored at −70° C. until performing the experiment.
The tissue samples (1 g) were homogenized using a Teflon-glass homogenizer (10 taps at 1,500 rpm) in 30 volumes of homogenization buffer 1 mM [ethylene glycol-bis(β-aminoethyl)-N,N,N′,N′-tetraacetic acid (EGTA), 3 mM MgCl2, 1 mM dithiothreitol (DTT) and 50 mM Tris-HCl, pH 7.4] supplemented with […] sucrose. The crude homogenate was centrifuged at 3,000×g and at 4° C. for 5 minutes and the resulting supernatant was again centrifuged at 40,000×g for 10 minutes (4° C.). The pellet was washed in 20 volumes of homogenization buffer and re-centrifuged in the same conditions. Aliquots were prepared and stored at −70° C. The protein content was determined according to the Bradford method [Bradford M M., Anal Biochem 1976; 72:248-54] using bovine serum albumin (BSA) as standard.
Aliquots of 1 mg/ml of each tissue were taken and with this suspension, 1 μl microspots were made on glass supports (microscope slides) subjected to the following treatments: • a) Treated with orthophosphoric acid (PA) according to the process of Example 1; • b) Gelatinized (G); • c) Coated with gamma-aminopropyltriethoxysilane (APTS); • d) Treated with nitric acid and gelatinized (NA); • e) Treated with nitric acid and subsequently with lignin (NA+lignin); • f) Treated with nitric acid and subsequently with pectin (NA+pectin); or • g) Treated with nitric acid and subsequently with Kuzu (NA+Kuzu).
The microscope slides with the tissue sections were left drying for 15 minutes at room temperature. Subsequently the tissue sections were preincubated in assay buffer at pH 7.4 [50 mM Tris-HCl, 3 mM MgCl2, 0.2 mM EGTA, 100 mM NaCl, 3 mU/ml adenosine deaminase] for 20 minutes at room temperature to eliminate, as much as possible, the presence of endogenous neurotransmitters; after that, the sections were again preincubated in the assay buffer supplemented with guanosine diphosphate (GDP) (2 mM) and DTT (1 mM).
The microscope slides were then incubated for 2 hours at 30° C. in the previous assay buffer, to which the following substances were added depending on the different conditions of the experiment:
After this time, 2 15-minute washings were performed in 50 mM Tris-HCl buffer, pH 7.4 at 4° C. After the second washing, the sections were immersed in distilled water at 4° C. to eliminate the salts and the microscope slides were dried by means of the application of a cold airflow.
Subsequently, the microscope slides with the corresponding sections were exposed to a radiosensitive film (Kodak Biomax MR) which was developed similarly to photographic film. The labeling was quantified transforming the different gray densities into nCi/g tissue equivalent. To that end, each film was exposed together with previously calibrated commercial standards (Amersham). The quantification was performed with microscopic anatomical resolution in a computerized image analysis system, using NIH-image software.
The substances added in the different assays were the following: • (A) To study the binding of [^35S]GTPγS in the absence (basal) and in the presence of agonists, the following agonists were used: • (i) the cannabinoid agonist WIN 55212-2 [(R)-(+)-[2,3-dihydro-5-methyl-3-[(4-morpholinyl)methyl]pyrrolo[1,2,3-d,e]-1.4-benzoxazin-6-yl]-(1-naphthalenyl)methanone mono-methanesulphonate] […]

Cc1cc(=O)oc2cc(NC(=O)[C@H](CCCCN)NC(=O)[C@H](CC3CCCCC3)NC(=O)OCC3c4ccccc4-c4ccccc43)ccc12 [galnon] (Fmoc-[Cha]-Lys-{AMC})
binding of [35S]GTPγS in the presence of ligand: increases

gal(2-11)
binding of [35S]GTPγS in the presence of ligand: increases

galanin-(1-13)-Pro-Pro-Ala-Leu-Ala-Leu-Ala-Leu-Ala amide [M40]
antagonism of the action of galnon on [35S]GTPγS binding: antagonized | binding of [35S]GTPγS in the presence of ligand: increases

galanin-(1-13)-bradykinin,-(2,9)amide [M35]
antagonism of the action of galnon on [35S]GTPγS binding: antagonized | binding of [35S]GTPγS in the presence of ligand: increases

galanin-(1-13)-substance P-5-11 amide [M15]
binding of [35S]GTPγS in the presence of ligand: increases

— patent publication US20100068782A1, “METHOD FOR THE SURFACE TREATMENT OF SOLID SUBSTRATES” (UNIVERSIDAD DEL (PIAS) PAIS VASCO, priority 2006, published 2010)
